Experimental data taken from patent US12509431B2, “1,4-dihydroquinazolinone compounds and uses thereof” (Edgewise Therapeutics, Inc., priority 2022, dated 2025).

Assays:
Assay type in all cases: biochemical
Conditions in all cases: Table 8
[1] = system: Porcine Atria myofibrils; experiment: Myofibril ATPase assay (PK/LDH NADH-coupled), atria myofibrils
Method in brief: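 Porcine atrial myofibril ATPase followed via PK/LDH-coupled NADH depletion, absorbance at 340 nm read every 1.5-2 min over 75 min. Slopes (mAU/min) normalized to vehicle as 100% and fit to a 4-parameter logistic; EC25% derived, plus EC50% for inhibitors.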

[2] = target: T1, Porcine Ventricle myofibrils (left ventricle of Yucatan minipigs) (Sus scrofa, UniProt P79293); experiment: Myofibril ATPase assay (PK/LDH NADH-coupled), ventricle myofibrils
T1 construct: Myofibrils from porcine cardiac muscle was isolated from the left ventricle of Yucatan minipigs; tissue Exemplar Genetics; host or cells: left ventricle of Yucatan minipigs
Method in brief: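 Yucatan minipig left-ventricle myofibrils; ATPase measured by PK/LDH-coupled NADH loss at 340 nm, read every 1.5-2 min for 75 min. Slopes normalized to vehicle (100%) and fit to 4-parameter logistic model; EC25 and, for inhibitors, EC50 calculated.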

[3] = system: Rabbit Skeletal myofibrils (rabbit psoas muscle); experiment: Myofibril ATPase assay (PK/LDH NADH-coupled), skeletal myofibrils
Method in brief: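 Rabbit psoas myofibrils in pCa (PIPES/CaCl2/EGTA, pH 7.0) buffer; ADP coupled via PK/LDH to NADH loss, read at 340 nm every 1.5–2 min for 75 min. Slopes normalized to vehicle (100%) and fit to 4-parameter logistic for EC25, plus EC50 for inhibitors.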

T1 sequence (P79293 whole entry): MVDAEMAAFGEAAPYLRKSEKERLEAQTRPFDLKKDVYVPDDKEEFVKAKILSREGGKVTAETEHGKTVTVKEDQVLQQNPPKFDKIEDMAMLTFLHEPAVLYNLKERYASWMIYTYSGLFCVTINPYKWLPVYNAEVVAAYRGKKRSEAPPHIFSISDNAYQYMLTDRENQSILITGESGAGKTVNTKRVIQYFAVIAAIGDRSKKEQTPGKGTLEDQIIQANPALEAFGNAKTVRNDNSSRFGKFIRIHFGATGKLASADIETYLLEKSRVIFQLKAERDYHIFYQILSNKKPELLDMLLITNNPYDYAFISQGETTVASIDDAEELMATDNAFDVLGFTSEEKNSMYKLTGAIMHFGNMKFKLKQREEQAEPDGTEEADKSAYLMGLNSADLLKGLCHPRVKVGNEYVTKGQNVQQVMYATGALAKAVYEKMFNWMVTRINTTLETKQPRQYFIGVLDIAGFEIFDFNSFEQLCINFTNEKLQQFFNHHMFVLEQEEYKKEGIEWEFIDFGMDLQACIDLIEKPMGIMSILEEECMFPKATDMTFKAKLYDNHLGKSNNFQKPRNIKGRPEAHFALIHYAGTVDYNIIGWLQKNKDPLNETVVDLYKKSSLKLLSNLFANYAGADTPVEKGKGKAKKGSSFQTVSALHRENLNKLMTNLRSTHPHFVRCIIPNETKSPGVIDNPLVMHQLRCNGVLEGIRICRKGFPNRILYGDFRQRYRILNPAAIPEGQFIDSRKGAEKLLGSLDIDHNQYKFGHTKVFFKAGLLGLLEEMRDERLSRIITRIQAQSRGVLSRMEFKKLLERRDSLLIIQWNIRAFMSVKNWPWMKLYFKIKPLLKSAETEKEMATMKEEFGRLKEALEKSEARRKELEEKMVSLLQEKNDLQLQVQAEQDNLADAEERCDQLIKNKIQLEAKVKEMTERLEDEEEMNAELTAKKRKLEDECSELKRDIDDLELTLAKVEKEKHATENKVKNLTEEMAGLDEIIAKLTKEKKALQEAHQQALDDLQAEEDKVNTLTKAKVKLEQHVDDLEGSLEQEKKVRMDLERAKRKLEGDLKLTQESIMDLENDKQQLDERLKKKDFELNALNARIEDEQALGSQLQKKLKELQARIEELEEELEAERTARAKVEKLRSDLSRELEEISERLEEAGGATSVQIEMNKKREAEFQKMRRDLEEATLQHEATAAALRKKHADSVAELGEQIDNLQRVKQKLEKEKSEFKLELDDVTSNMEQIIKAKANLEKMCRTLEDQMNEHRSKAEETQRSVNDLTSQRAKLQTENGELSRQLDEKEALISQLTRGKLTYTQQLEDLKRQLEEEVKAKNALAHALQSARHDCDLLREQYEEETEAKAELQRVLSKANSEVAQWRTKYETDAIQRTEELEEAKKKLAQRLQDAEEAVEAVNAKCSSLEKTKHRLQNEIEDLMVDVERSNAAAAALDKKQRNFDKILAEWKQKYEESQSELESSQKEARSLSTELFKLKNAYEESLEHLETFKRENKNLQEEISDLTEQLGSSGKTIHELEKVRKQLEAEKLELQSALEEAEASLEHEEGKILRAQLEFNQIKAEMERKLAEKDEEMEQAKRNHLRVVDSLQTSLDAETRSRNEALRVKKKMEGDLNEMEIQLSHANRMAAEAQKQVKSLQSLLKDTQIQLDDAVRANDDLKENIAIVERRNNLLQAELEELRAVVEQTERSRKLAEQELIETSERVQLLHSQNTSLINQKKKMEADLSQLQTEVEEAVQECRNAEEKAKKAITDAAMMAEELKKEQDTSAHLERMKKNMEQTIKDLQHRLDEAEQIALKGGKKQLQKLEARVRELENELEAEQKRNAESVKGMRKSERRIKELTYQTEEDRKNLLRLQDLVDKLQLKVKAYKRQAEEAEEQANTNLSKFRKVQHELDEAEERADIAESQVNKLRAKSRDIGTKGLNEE

Porcine Atria IC25 [1]	Porcine Ventricle IC25 [2]	Rabbit Psoas IC25 [3]	Compound
1.52 µM	15.17 µM	77.91 µM	C[C@@H](C(=O)N[C@@H](CO)c1ccc(F)cc1F)N1Cc2c(Cl)cccc2NC1=O [Compound B212]
97.43 µM	100 µM	100 µM	C[C@H](C(=O)N[C@H](CO)c1ccc(F)cc1F)N1Cc2c(Cl)cccc2NC1=O [Compound B213]
0.07 µM	0.2408 µM	0.088 µM	C[C@H](C(=O)N[C@@H](CO)c1ccc(F)cc1F)N1Cc2c(Cl)cccc2NC1=O [Compound B214]
100.00 µM	100 µM	100 µM	C[C@@H](NC(=O)CN1Cc2cc(F)ccc2NC1=O)c1ncccn1 [Compound B215]
100.00 µM	100 µM	100 µM	C[C@H](NC(=O)CN1Cc2cc(F)ccc2NC1=O)c1ncccn1 [Compound B216]
0.13 µM	0.8987 µM	0.0678 µM	O=C(CN1Cc2cc(F)ccc2NC1=O)N[C@H](CO)c1ccc(F)cc1F [Compound B217]
8.55 µM	100 µM	9.306 µM	O=C(CN1Cc2cc(F)ccc2NC1=O)N[C@@H](CO)c1ccc(F)cc1F [Compound B218]
100.00 µM	100 µM	31.8 µM	C[C@H](NC(=O)[C@H](Cc1ccccc1)N1Cc2cc(F)ccc2NC1=O)c1ccc(F)cc1F [Compound B219]
53.57 µM	100 µM	47.56 µM	C[C@H](NC(=O)[C@@H](Cc1ccccc1)N1Cc2cc(F)ccc2NC1=O)c1ccc(F)cc1F [Compound B220]
0.03 µM	0.1086 µM	0.0174 µM	C[C@H](NC(=O)CN1C(=O)Nc2ccc(F)cc2C12CC2)c1ccc(F)cc1F [Compound B221]
0.05 µM	0.4365 µM	0.041 µM	C[C@H](NC(=O)[C@H](C)N1Cc2c(F)cccc2NC1=O)c1ccc(F)cc1F [Compound B222]
0.44 µM	3.783 µM	1.426 µM	C[C@H](NC(=O)[C@@H](C)N1Cc2c(F)cccc2NC1=O)c1ccc(F)cc1F [Compound B223]
28.57 µM	100 µM	3.991 µM	Cc1cc(F)ccc1[C@@H](C)NC(=O)CN1Cc2cc(F)ccc2NC1=O [Compound B224]
0.05 µM	0.1849 µM	0.0175 µM	Cc1cc(F)ccc1[C@H](C)NC(=O)CN1Cc2cc(F)ccc2NC1=O [Compound B225]
0.14 µM	0.2274 µM	0.0244 µM	C[C@H](NC(=O)CN1Cc2c(Br)cccc2NC1=O)c1ccc(F)cc1F [Compound B226]
0.06 µM	0.2485 µM	0.0127 µM	C[C@H](NC(=O)[C@H](C)N1Cc2c(Br)cccc2NC1=O)c1ccc(F)cc1F [Compound B227]
0.32 µM	2.111 µM	0.2844 µM	C[C@H](NC(=O)[C@@H](C)N1Cc2c(Br)cccc2NC1=O)c1ccc(F)cc1F [Compound B228]
0.06 µM	0.156 µM	0.0356 µM	C[C@H](NC(=O)CN1C(=O)Nc2ccccc2C12CC2)c1ccc(F)cc1F [Compound B229, N-[(1S)-1-(2,4-Difluorophenyl)ethyl]-2-{2′-oxo-1′H-spiro[cyclopropane-1,4′-quinazolin]-3′-yl}acetamide]
0.22 µM	1.835 µM	0.182 µM	C[C@H](NC(=O)CN1Cc2cc(F)ccc2NC1=O)c1ncc(F)cc1F [Compound B230]
1.15 µM	100 µM	100 µM	C[C@H](NC(=O)CN1C(=O)Nc2ccc(F)cc2[C@H]1C(F)(F)F)c1ccc(F)cc1F [Compound B235]
0.03 µM	0.2316 µM	0.0333 µM	C[C@H](NC(=O)[C@@H](C)N1Cc2c(ccc(F)c2F)NC1=O)c1ccc(F)cc1F [Compound B236]

Porcine Atria IC25 [1]	Porcine Ventricle IC25 [2]	Rabbit Psoas IC25 [3]	Compound
0.28 µM	8.122 µM	0.3164 µM	C[C@H](NC(=O)[C@H](C)N1Cc2c(ccc(F)c2F)NC1=O)c1ccc(F)cc1F [Compound B237]
0.03 µM	0.1435 µM	0.0116 µM	C[C@H](NC(=O)CN1Cc2c(ccc(F)c2F)NC1=O)c1ccc(F)cc1F [Compound B238]
100.00 µM	100 µM	7.191 µM	C[C@@H](NC(=O)[C@H](C)N1Cc2cc(F)ccc2NC1=O)c1ccc(F)cc1F [Compound B239]
25.37 µM	100 µM	0.8825 µM	C[C@H](C(=O)N[C@H](C)c1ccc(F)cc1F)N1Cc2cc(F)ccc2NC1=O [Compound B240]
0.11 µM	1.243 µM	0.034 µM	C[C@H](NC(=O)[C@@H](C)N1Cc2cc(F)ccc2NC1=O)c1ccc(F)cc1F [Compound B241]
58.71 µM	100 µM	0.3555 µM	C[C@H](NC(=O)[C@H](C)N1Cc2cc(F)ccc2NC1=O)c1ccc(F)cc1F [Compound B242]
0.19 µM	11.52 µM	10.96 µM	CC(C(=O)N[C@@H](C)c1ccc(F)cc1F)N1Cc2ccccc2NC1=O (stereo partly drawn) [Compound B243]
2.50 µM	4.818 µM	0.695 µM	CC1c2ccccc2NC(=O)N1CC(=O)N[C@@H](C)c1ccc(F)cc1F (stereo partly drawn) [Compound B244, N-[(1S)-1-(2,4-Difluorophenyl)ethyl]-2-(4-methyl-2-oxo-1,4-dihydroquinazolin-3-yl)acetamide]
0.94 µM	11.66 µM	9.295 µM	C[C@H](NC(=O)CN1C(=O)Nc2ccccc2C1(C)C)c1ccc(F)cc1F [Compound B245]
100.00 µM	73.7 µM	19.62 µM	C[C@H](NC(=O)CN1C(=O)Nc2ccccc2C12CCCCC2)c1ccc(F)cc1F [Compound B246]
0.05 µM	0.2832 µM	0.062 µM	C[C@H](NC(=O)CN1Cc2c(F)cccc2NC1=O)c1ccc(F)cc1F [Compound B248, N-[(1S)-1-(2,4-Difluorophenyl)ethyl]-2-(5-fluoro-2-oxo-1,4-dihydroquinazolin-3-yl)acetamide]
0.07 µM	0.6589 µM	0.02766 µM	C[C@H](NC(=O)CN1Cc2ccccc2NC1=O)c1ccc(F)cc1F [Compound B249, N-[(1S)-1-(2,4-difluorophenyl)ethyl]-2-(2-oxo-1,4-dihydroquinazolin-3-yl)acetamide]
81.49 µM	60.47 µM	36.83 µM	C[C@@H](NC(=O)CN1Cc2c(ccc(F)c2F)NC1=O)c1ncc(C(N)=O)cc1O [Compound B250]
8.81 µM	100.00 µM	100.00 µM	C[C@@H](NC(=O)CN1Cc2cc(CN(C)C)ccc2NC1=O)c1ncc(C#N)cc1F [Compound B251]
81.49 µM	60.47 µM	36.83 µM	C[C@H](NC(=O)CN1Cc2cc(CN(C)C)ccc2NC1=O)c1ncc(C#N)cc1F [Compound B252]
100.00 µM	100.00 µM	86.41 µM	CNC(=O)N1CC2(C1)c1cc(F)ccc1NC(=O)N2CC(=O)N[C@H](C)c1ncc(C#N)cc1F [Compound B253]
100.00 µM	100.00 µM	100.00 µM	CNC(=O)N1CC2(C1)c1cc(F)ccc1NC(=O)N2CC(=O)N[C@@H](C)c1ncc(C#N)cc1F [Compound B254]
100.00 µM	100.00 µM	100.00 µM	CC(=O)N1CC2(C1)c1cc(F)ccc1NC(=O)N2CC(=O)N[C@H](C)c1ncc(C#N)cc1F [Compound B255]
75.74 µM	46.27 µM	39.41 µM	CC(=O)N1CC2(C1)c1cc(F)ccc1NC(=O)N2CC(=O)N[C@@H](C)c1ncc(C#N)cc1F [Compound B256]
0.52 µM	0.89 µM	100.00 µM	C[C@@H](NC(=O)CN1Cc2c(ccc(F)c2F)NC1=O)c1ncc(-n2ncnn2)cc1F [Compound B264]
